Experimental data as given in patent US20060194217A1, “Method of genotyping and phenotyping hepatitis B viruses resistant to antiviral molecules” (priority 2005, published 2006).

Tests used:
[1] = system: HBV quasi-species of patient sample N° 17; experiment: High throughput phenotyping assay: patient sample N° 17; type: cell-based, hepatitis B virus; details: for IC50: Hepatitis B virus, 96 h, sample N° 17, M24 3TC, INNO LiPA L180M ± M204I, 4 days treatment; for Increase in resistance: sample N° 17, IC50 compared with referent virus
Procedure: (§1) The DNA from 1 ml of serum was extracted using the QIAamp Ultrasens Virus kit (Qiagen), and was taken up in 60 μl of water.
(§2) An amplification of the whole genomes by the method of the invention including the Nar I site was carried out and the amplicons obtained were purified by means of a silica column (Qiagen kit, Qiaquick purification kit).
(§3) The amplicons were then digested with the Nar I enzyme and purified by the same method as above.
(§4) These amplicons were transfected, in a culture format comprising a 25 cm^2 flask seeded the day before at a density of 5.2×10^4 cells/cm^2, with 200 to 400 ng of amplicon/cm^2.
(§5) After 60 hours, the cells were trypsinized and then treated with DNAse. After trypsinization, the cells were taken up in culture medium supplemented 50/50 with the two-times concentrated DNAse buffer (50 mM Tris, 1 mM CaCl2, 5 mM MgCl2, pH 8, 400 μg/ml of DNAse I) containing DNAse I, and incubated for 45 min at 37°. After pelleting, the cells were taken up in culture medium and distributed into 96-well culture plates coated (BioCoat) with collagen at a density of 6×10^4 cells/cm^2 in a volume corresponding to half the final volume used for the treatment with the drugs to be tested. This volume was completed with the 2-times concentration range of the drugs studied (Lamivudine and Adefovir)
(§6) The ranges used were from 100 to 0.01 μM for Lamivudine and from 100 to 6.25 μM for Adefovir. These cultures were treated with these dilutions for 4 days.
(§7) At the end of these 4 days of treatment, the viral DNA was extracted.
(§8) This step was carried out after washing the cells with PBS and adding the extraction buffer, i.e. 50 μl per 30 mm^2 (96-well format) (25 mM Tris, 0.5 mM CaCl2, 2.5 mM MgCl2, pH 8, 0.4 mg/ml DNAse, 0.4 mg/ml RNAse, 1% NP40). The lysis lasted one hour at 37° C. with agitation on a Heidolph Titramax 1000 plate mixer at a rotation rate of about 1050 rpm.
(§9) After this step of lysis and of digestion with DNAse and RNAse, the viral DNA produced during the culturing remains protected in the viral capsids. […]
(§10) This denaturation step was then stopped by adding a neutralizing buffer, 15 μl of 1M Tris at pH 7, and the solution thus obtained was subjected to a dilution before quantification by real time PCR. […]
(§11) The viral DNA extracted was then quantified by means of real time PCR quantification method.
(§12) This HBV production quantification step can be directly carried out after the preceding step, without any need to purify or concentrate the cell lysates to be assayed. […] (quantification step), and a final extension of one minute at 63° C. […]
(§13) For each plate assayed, a standard curve of 10^6 to 10^2 HBV copies/reaction was quantified in parallel. […]

[2] = system: HBV quasi-species of patient sample N° 7; experiment: High throughput phenotyping assay: patient sample N° 7; type: cell-based, hepatitis B virus; details: for IC50: Hepatitis B virus, 96 h, sample N° 7, M18 3TC, INNO LiPA L80V M204I, 4 days treatment; for Increase in resistance: sample N° 7, IC50 compared with referent virus
Procedure: as §1, §2, §3, §4, §5, §6, §7, §8, §9, §10, §11, §12, §13

[3] = system: HBV quasi-species of patient sample N° 3; experiment: High throughput phenotyping assay: patient sample N° 3; type: cell-based, hepatitis B virus; details: for IC50: Hepatitis B virus, 96 h, sample N° 3, D0 3TC, naïve, INNO LiPA wt, 4 days treatment; for Increase in resistance: sample N° 3, IC50 compared with referent virus
Procedure: as §1, §2, §3, §4, §5, §6, §7, §8, §9, §10, §11, §12, §13

[4] = system: HBV quasi-species of patient sample N° 5; experiment: High throughput phenotyping assay: patient sample N° 5; type: cell-based, hepatitis B virus; details: for IC50: Hepatitis B virus, 96 h, sample N° 5, D0 3TC, naïve, INNO LiPA wt, 4 days treatment; for Increase in resistance: sample N° 5, IC50 compared with referent virus
Procedure: as §1, §2, §3, §4, §5, §6, §7, §8, §9, §10, §11, §12, §13

[5] = system: HBV quasi-species of patient sample N° 21; experiment: High throughput phenotyping assay: patient sample N° 21; type: cell-based, hepatitis B virus; details: for IC50: Hepatitis B virus, 96 h, sample N° 21, D0 3TC, naïve, INNO LiPA wt, 4 days treatment; for Increase in resistance: sample N° 21, IC50 compared with referent virus
Procedure: as §1, §2, §3, §4, §5, §6, §7, §8, §9, §10, §11, §12, §13

[6] = system: HBV quasi-species of patient sample N° 19; experiment: High throughput phenotyping assay: patient sample N° 19; type: cell-based, hepatitis B virus; details: for IC50: Hepatitis B virus, 96 h, sample N° 19, M24 3TC M3 PMEA, INNO LiPA L180M A181V, 4 days treatment; for Increase in resistance: IC50 compared with referent virus
Procedure: as §1, §2, §3, §4, §5, §6, §7, §8
After this step of lysis and of digestion with DNAse and RNAse, the viral DNA produced during the culturing remains protected in the viral capsids. This DNA was then extracted by denaturation of the viral capsids by means of alkalinization of the extraction buffer by addition of NaOH, i.e. 15 μl of a 0.4M solution per 50 μl of extraction buffer. This denaturation was carried out at 37° C. for 30 min under the same agitation conditions as during the treatment with DNAse, i.e. on a Heidolph Titramax 1000 plate mixer at a rotation rate of about 1050 rpm.
This denaturation step was then stopped by adding a neutralizing buffer, 15 μl of 1M Tris at pH 7, and the solution thus obtained was subjected to a dilution before quantification by real time PCR. The final dilution is ⅕ relative to the initial volume of extraction buffer, i.e. an addition of 170 μl of water in a 96-well format.
as §11
This HBV production quantification step can be directly carried out after the preceding step, without any need to purify or concentrate the cell lysates to be assayed. The real time PCR can be carried out in the same format as the culture format, i.e. a 96-well format on the Biorad MyiQ device, using the real time kit and the consumables suitable for this device, i.e. the iQ™ Sybr® Green Supermix two-times concentrated PCR mix. […] (quantification step), and a final extension of one minute at 63° C. […]
as §13

[7] = system: reference HBV, genotype D, ayw serotype, wild-type phenotype; experiment: High throughput phenotyping assay, HBV genomic amplicon transfected, viral DNA by real time PCR: referent virus; type: cell-based; details: Hepatitis B virus, 96 h, Referent virus (genotype D, ayw, without known mutation), 4 days treatment
Procedure: In addition to the 6 samples analysed, a control was included. This control is a genome of the reference HBV, genotype D, having an ayw serotype and a wild-type phenotype for all the drugs studied. This genome was amplified by the same technique as the samples analysed using a plasmid.
as §2, §3, §4
After 60 hours, the cells were trypsinized and then treated with DNAse. […]
as §10, §11, §12

HBV = details: cited from earlier work

Molecule	IC50 [1] [µM]	Increase in resistance [1]	IC50 [2] [µM]	Increase in resistance [2]	IC50 [3] [µM]	Increase in resistance [3]	IC50 [4] [µM]	Increase in resistance [4]	IC50 [5] [µM]	Increase in resistance [5]	IC50 [6] [µM]	in vitro phenotype ([6]; sample N° 19)	Increase in resistance ([6]; sample N° 19)	IC50 [7] [µM]	chronic carriers that it is possible to treat (HBV)
Nc1ncnc2c1ncn2CCOCP(=O)(O)O [Adefovir]	14	1.75	13.5	1.7	9	1.1	8	1	14.5	1.8	52	doubly resistant	6.5	8	–
Nc1ccn([C@@H]2CS[C@H](CO)O2)c(=O)n1 [Lamivudine]	> 100	>1000	> 100	>1000	0.7	7	0.2	2	0.14	1.4	40	–	400	0.1	–
alpha-interferon	–	–	–	–	–	–	–	–	–	–	–	–	–	–	approximately 40%
